Experimental data: ChEMBL document CHEMBL1154048, “Design, synthesis and pharmacological evaluation of new 1-[3-(4-arylpiperazin-1-yl)-2-hydroxy-propyl]-3,3-diphenylpyrrolidin-2-one derivatives with antiarrhythmic, antihypertensive, and alpha-adrenolytic activity” (Eur J Med Chem, 2009)

Key:
Assay type in all cases: functional, Artery
Rattus norvegicus [1] = assay: Hypotensive activity in normotensive Wistar rat assessed as systolic blood pressure at 2.5 mg/kg, iv after 30 mins (Rvb=125.6 +/- 7.6 mmHg)
Rattus norvegicus [2] = assay: Hypotensive activity in normotensive Wistar rat assessed as diastolic blood pressure at 5 mg/kg, iv after 10 mins (Rvb=120 +/- 1.7 mmHg)
Rattus norvegicus [3] = assay: Hypotensive activity in normotensive Wistar rat assessed as systolic blood pressure at 5 mg/kg, iv after 60 mins (Rvb=138 +/- 0.9 mmHg)
Rattus norvegicus [4] = assay: Hypotensive activity in normotensive Wistar rat assessed as systolic blood pressure at 5 mg/kg, iv after 10 mins (Rvb=141.3 +/- 6.4 mmHg)

COc1ccc(N2CCN(CC(O)CN3CCC(c4ccccc4)(c4ccccc4)C3=O)CC2)cc1.Cl.Cl (centres undefined)
Activity (Rattus norvegicus [1]): 105.6 mmHg

COc1ccccc1N1CCN(CC(O)CN2CCC(c3ccccc3)(c3ccccc3)C2=O)CC1.Cl.Cl (centres undefined)
Activity (Rattus norvegicus [2]): 107.5 mmHg

Cl.Cl.O=C1N(CC(O)CN2CCN(c3ccccc3C(F)(F)F)CC2)CCC1(c1ccccc1)c1ccccc1 (centres undefined)
Activity (Rattus norvegicus [3]): 111 mmHg

Cc1ccccc1N1CCN(CC(O)CN2CCC(c3ccccc3)(c3ccccc3)C2=O)CC1.Cl.Cl (centres undefined)
Activity (Rattus norvegicus [4]): 133.7 mmHg
